Experiments:
GH release [1] = conditions: cited from earlier work
[2] = in vivo; cited from earlier work
GH release [3] = test: Serum GH at 1.5 hours post night time sleep after oral ingestion, antibody capture technique, healthy volunteer; type: in vivo, human; conditions: for Augmentation of GH release at 1.5 hours post sleep (in words): oral at night sleep
Experimental: Measurements of GH release occurring at 1.5 hours post sleep were performed on serum samples from a healthy volunteer. Controls and serum analysis for GH were measured by standard commercially avialable antibody capture technique. Experiments and measurement of results occurred between June and October 2000. Each single night experimental serum collection was separated from any other experiments by 1 week. All determinations represent averaged value of triple determinations. […] Measurements were each performed on serum collected 1.5 hours post night time sleep. Choice of 1.5 hours post sleep represents one complete sleep cycle with slow wave sleep during which GH is released. Oral ingestions of stated substances occurred just before night sleep. The normal range of serum GH at 1.5 hours post sleep is in the 1-10 nanograms per milliliter (ng/ml) range. The variance in measurement precision is given by the second value. All experiments were preceded by a period of 3-4 hours since the last meal.

[4] = cited from earlier work
[5] = oral ingestion, humans; cited from earlier work
[6] = system: mitochondrial maximal energy production; conditions: pharmacological levels, intravenous, aged animals, within an hour or two; cited from earlier work

## N=C(N)NCCC[C@H](N)C(=O)O [l-arginine]
GH release [1]
  Lowest oral dose that augmented normal night time GH release: greater than 3 grams
GH release [1]; oral, alone, doses of up to 6 gram at night
  Elevation of growth hormone secretion (in words): does not elevate growth hormone secretion

## NCCCNCCCCNCCCN [spermine]
[2]
  Toxicity when administered systematically (in words): significant toxicity

## NCCCCNCCCN [spermidine]
[2]
  Toxicity when administered systematically (in words): considerably less toxic

## CC(=O)O[C@H](CC(=O)[O-])C[N+](C)(C)C [Acetyl-l-carnitine, acetyl-l-carnitine]
GH release [3]; 500 mg of the single substance alone, oral at sleep, 1.5 hour post sleep serum collection, 3-4 hours after last meal, control […] ± 0.2
  Measured GH: 0.55 ± 0.1 ng/mL
GH release [3]
  Augmentation of GH release at 1.5 hours post sleep (in words): absence of effect
[4]; 2.5-7 grams per day, Alzheimer's disease treatment
  Safety in long human testing (in words): without reported negative consequences
[4]; comparable to normal nutritional amino acids
  Toxicity sets in at: about 1 % of body weight
[5]
  Maximal immediately absorbed dose: 500 to 2000 milligrams
[6]
  Restoration of mitochondrial maximal energy production (in words): restore mitochondrial maximal energy production to youthful levels

## NCCC[C@H](N)C(=O)O [l-ornithine]
GH release [3]
  Augmentation of GH release at 1.5 hours post sleep (in words): absence of effect

## NCCCCN [putrescine]
[2]
  Toxicity when administered systematically (in words): considerably less toxic
